Here are results for 17 compounds from US6114381A, “Non-heterocyclic β-phenyl-α-aminopropionic acid n-phenyl amides for treatment of neurotoxic injury” (priority 1998, dated 2000).

pKi: −log10 of the molar value. Where a name gives a salt, the structure may show the parent alone. Read-outs that look alike come from different tables or passages of the source.

One assay deals with PCP receptors. As to the kind of experiment: Radioreceptor assay (3H-TCP displacement, rat brain membranes). To be noted: read-out: Ki apparent, 1 nM 3H-TCP, whole rat brain membranes, 1 h incubation, Cheng & Prusoff.
Assay [1] in a line: Behavioral assay (stereotyped behavior, PCP rating scale). It counts as in vivo, rat (male Sprague-Dawley). The procedure: Compound No. 4 was tested by an in vivo assay which determined stereotypic behavior in rats treated with the compound. Male Sprague-Dawley rats weighing 200 to 250 g were used in the behavioral experiments. Each rat was used only once. Rats were anesthetized lightly with ether before a 20-gauge needle was used to make a hole in the rat's skull for i.c.v. injection of drugs at a later date. These rats were allowed to recover for at least 1 day before being used in the behavioral assays. On the day of the experiement, rats were placed individually into plastic rat cages and allowed at least 1 hr to acclimate before testing. Drugs were administered to rats in a random, single-blind fashion. Behavioral ratings were taken at 5-min intervals up to 1 hr after drug administration (i.p.) using the PCP rating scale as described by Sturgeon et al [Sturgeon, R. D., Fessler, R. G. and Meltzer, H. Y., "Behavioral Rating Scales for Accessing Phencyclidine-Induced Locomotor Activity. […] Dose-response curves for each treatment were determined at the time of maximal behavioral effect. […] ED50 values and dose-response curves were evaluated using a computerized Finney assay [Statistical Methods in Biological Assays, 2nd Edn., Hatner Pub. […] The ability of the Compound No. 4 to induce stereotyped behavior was assessed at 2.5, 5 and 10 minutes and thereafter every 5 min up to 1 hr after i.p. administration.

For assay [2], the system named is NMDA. As to conditions: Anis et al, Br. J. Pharmacol. 1983; cited from earlier work.
For assay [3], the system named is NMDA. To be noted: Berry et al, Eur. J. Pharm. 1983; binding and behavioral data; cited from earlier work.
Assay [4] has as its system rat cerebral cortical membranes. To be noted: Goldman et al, FEBS Lett.; cited from earlier work.
The subject of assay [5] is CAl region of the hippocampus. As to the kind of experiment: Forebrain ischemia assay (carotid occlusion, CA1 hippocampal cell loss). It counts as in vivo, Mongolian gerbil. To be noted: 30 mg/kg i.p. 30 min prior to carotid occlusion; 7 days after; n=6 vs 69 saline gerbils; Mann-Whitney U, p<0.005. The procedure: Male Mongolian gerbils, 50-70 gm, were used as subjects. Compound No. 4 (30 mg/kg) was injected i.p. 30 minutes prior to carotid occlusion into 6 gerbils. In preparation for surgical procedures, the animals were lightly anesthetized with methoxyflurane and placed upside down on a heated pad with the animal's snout within a nosecone. A mixture of 70 parts nitrous oxide, 30 parts oxygen and 0.5 part halothane was circulated through the nosecone to provide continuous anesthesia throughout the surgical procedure. A midline incision was made in the neck and the carotid arteries were exposed. A length of suture thread was placed under each carotid. The thread was then tightened around each carotid and pressure applied to the thread to insure flow was occluded. Flow was occluded for 4-5 minutes and then the thread was removed. The carotids were visually inspected to confirm that reflow had occurred. The wound was then closed with autoclips and the gerbils allowed to recover. Following surgery, the gerbils were kept alive for 7 days. They were anesthetized with 100 mg/kg sodium pentobarbital and perfused transcardially with saline (with heparin) followed by buffered formalin. The brain was removed, trimmed and prepared for histological processing. Sections (10 microns) were stained with thionin. […]

What is called pKi is the Ki on a negative log10 scale, so that one unit is a factor of ten. Usually ED50 stands for the dose at which the effect has come halfway, by size or by number of responders.

`COc1ccc2c(c1)CCCN2C(=O)[C@@H](N)Cc1c(C)cc(O)cc1C` [Compound No. 9, 1-[2S-amino-3-(4-hydroxy-2,6-dimethylphenyl)-1-oxopropyl]-1,2,3,4-tetrahydro-6-methoxyquinoline, monohydrochloride]: the pKi at PCP receptors was 5.39.

As for `Cc1cc(O)cc(C)c1C[C@H](N)C(=O)N1Cc2ccccc2CCc2ccccc21` [Compound No. 12, 5-[2S-amino-3-(4-hydroxy-2,6-dimethylphenyl)-1-oxopropyl]-5,6,11,12-tetrahydrodibenz[b,f]azocine, monohydrochloride], the pKi at PCP receptors is 4.70.

For `COc1cc(C)c(C[C@H](N)C(=O)N2CCCc3ccccc32)c(C)c1` [Compound No. 10, 1-[2S-amino-3-(4-methoxy-2,6-dimethylphenyl)-1-oxopropyl]-1,2,3,4-tetrahydroquinoline, monohydrochloride], at PCP receptors, the pKi is 5.35.

In the case of `c1ccc(C2(N3CCCCC3)CCCCC2)cc1` [PCP, Phencyclidine, reference compound], the pKi at PCP receptors was 7.02. The “time of peak effects (stereotyped behavior)” value in assay [1] (PCP 2.0-32 mg/kg i.p.) is on record as 15 min. The “reduction of excitatory effects of NMDA as compared to KA and QUIS” value in the assay with NMDA [2] was “reduce selectively the excitatory effects of NMDA”.

`Cc1cc(O)cc(C)c1C[C@H](N)C(=O)N1CC(C)Cc2ccccc21` (single isomer, unassigned) [Compound No. 6, 1-[-2S-amino-3-(4-hydroxy-2,6-dimethlyphenyl)-1-oxopropyl]-1,2,3,4-tetrahydro-3-methylquinoline, hydrochloride]: at PCP receptors (hydrochloride), the pKi was 6.62.

Turning to `Cc1cc(O)cc(C)c1C[C@H](N)C(=O)N1CCc2ccccc21` [Compound No. 8, 1-[2S-amino-3-(4-hydroxy-2,6-dimethylphenyl)-1-oxopropyl]-2,3-dihydro-1H-indole, monohydrochloride], the pKi at PCP receptors was 5.84.

Regarding `N[C@@H](Cc1ccc(O)cc1)C(=O)N1CCCc2ccccc21` [Compound No. 1, 1-[2S-amino-3-(4-hydroxyphenyl)-1-oxopropyl]-1,2,3,4-tetrahydroquinoline, monohydrochloride], on PCP receptors, the pKi was 5.15.

`Cc1cc(O)cc(C)c1C[C@H](N)C(=O)N(C)c1ccccc1` [Compound No. 3, αS-amino-4-hydroxy-N,2,6-trimethyl-N-phenylbenzenepropanamide, monohydrochloride]: the negative-log Ki (pKi) at PCP receptors is 5.59.

For `c1csc(C2(N3CCCCC3)CCCCC2)c1` [TCP, reference compound], at PCP receptors, the pKi was 7.70.

For `CC1CCC(c2ccccc2)(N2CCCCC2)CC1` (stereo not drawn) [cis-N-(1-phenyl-4-methylcyclohexyl)piperidine], in the assay on NMDA [3], the “stereoselective effect over corresponding isomer in reducing the excitatory action of NMDA” value was “confirmed”.

For the compound `CC1CCCN(C2(c3ccccc3)CCCCC2)C1` (single isomer, unassigned; (+)) [(+)-PCMP, (+)-1-(1-phenylcyclohexyl)-3-methylpiperidine], the “stereoselective effect over corresponding isomer in reducing the excitatory action of NMDA” value in the assay with NMDA [3] is on record as “confirmed”. In assay [4], the “inhibition of specific binding of [3H]PCP” value is “potent inhibitor”.

For the compound `Cc1cc(O)cc(C)c1C[C@H](N)C(=O)N1CCCc2cccc(O)c21` [Compound No. 11, 1-[2S-amino-3-(4-hydroxy-2,6-dimethylphenyl)-1-oxopropyl]-1,2,3,4-tetrahydro-8-hydroxyquinoline, monohydrochloride], the pKi at PCP receptors was 6.38.

For the compound `CNC1(c2ccccc2Cl)CCCCC1=O` (stereo not shown) [ketamine], in the assay on NMDA [2], the “reduction of excitatory effects of NMDA as compared to KA and QUIS” value is given as “reduce selectively the excitatory effects of NMDA”.

On to `Cc1cc(O)cc(C)c1C[C@H](N)C(=O)N1CC(C)Cc2ccccc21` (single isomer, unassigned) [Compound No. 7, 1-[2S-amino-3-(4-hydroxy-2,6-dimethylphenyl)-1-oxopropyl]-1,2,3,4-tetrahydro-3-methylquinoline, hydrochloride], for which, at PCP receptors (hydrochloride), the pKi is 6.06.

For the compound `Cc1cc(O)cc(C)c1C[C@@H](N)C(=O)N1CCCc2ccccc21` [Compound No. 5, 1-[2R-amino-3-(4-hydroxy-2,6-dimethylphenyl)-1-oxopropyl]-1,2,3,4-tetrahydroquinoline, monohydrochloride], on PCP receptors, the pKi was 7.00.

As to `Cc1cc(O)cc(C)c1C[C@H](N)C(=O)N1CCCc2ccccc21` [Compound No. 4, 1-[2S-amino-3-(4-hydroxy-2,6-dimethylphenyl)-1-oxopropyl]-1,2,3,4-tetrahydroquinoline, monohydrochloride], the negative-log Ki (pKi) at PCP receptors is 7.80. Moreover, in assay [1] (Rattus norvegicus, ip, rats, PCP rating scale, at time of maximal effect, read-out: ED50 for induction of stereotyped behavior), the ED50 amounted to 11 mg/kg. Besides, in assay [5], the “cell loss in CA1” value is listed as “significantly reduced”.

Regarding `Cc1cc(O)ccc1C[C@H](N)C(=O)N1CCCc2ccccc21` [Compound No. 2, 1-[2S-amino-3-(4-hydroxy-2-methylphenyl)-1-oxopropyl]-1,2,3,4-tetrahydroquinoline, monohydrochloride], at PCP receptors, the pKi is 6.10.
